Reference: EPA's ToxRefDB 2

Experiments:
rat [1] = conditions: Prenatal developmental toxicity study, sprague dawley, Oral, Gavage/Intubation, dose end: 15 GD
rat [2] = conditions: Prenatal developmental toxicity study, sprague dawley, Oral, Gavage/Intubation, dose end: 19 GD
rabbit [3] = conditions: Prenatal developmental toxicity study, new zealand white, Oral, Gavage/Intubation, dose end: 28 GD
rabbit [4] = conditions: Prenatal developmental toxicity study, new zealand white, Oral, Gavage/Intubation, dose end: 28 GD; remark: listed apart in the source
rat [5] = conditions: Peri- and post-natal toxicity study (Segment III), sprague dawley, Oral, Gavage/Intubation, dose end: 40 PND
dog [6] = conditions: Prenatal developmental toxicity study, beagle, Oral, Feed, dose end: 56 GD
dog [7] = conditions: Chronic toxicity, beagle, Oral, Feed, dose end: 104 week
rat [8] = conditions: Combined chronic toxicity/carcinogenicity, wistar, Oral, Feed, dose end: 104 week
rabbit [9] = conditions: Prenatal developmental toxicity study, new zealand white, Oral, Gavage/Intubation, dose end: 18 GD
rat [10] = conditions: Subchronic oral toxicity in rodents, fischer, Gavage/Intubation, dose end: 13 week
rat [11] = conditions: Combined chronic toxicity/carcinogenicity, fischer, Oral, Feed, dose end: 104 week
mouse [12] = conditions: Combined chronic toxicity/carcinogenicity, b6c3f1, Oral, Feed, dose end: 105 week
rat [13] = conditions: Subchronic oral toxicity in rodents, fischer, Feed, dose end: 13 week
mouse [14] = conditions: Subchronic oral toxicity in rodents, b6c3f1, Gavage/Intubation, dose end: 13 week
mouse [15] = conditions: Subchronic oral toxicity in rodents, b6c3f1, Feed, dose end: 13 week
[16] = group: developmental, developmental / developmental malformation / bone / absent + developmental / developmental malformation / bone / bipartite ossification + …
[17] = group: maternal, systemic / pathology gross / liver / enlarged + systemic / in life observation / clinical signs / salivation
[18] = group: developmental, developmental / developmental malformation / bone / fused cartilage + systemic / in life observation / body weight / fetal weight
[19] = group: maternal, systemic / in life observation / body weight / body weight gain + systemic / in life observation / food consumption / food consumption
[20] = group: maternal, systemic / in life observation / body weight / body weight gain + systemic / in life observation / food consumption / food consumption + …
[21] = group: developmental, developmental / developmental malformation / bone / delayed ossification + developmental / developmental malformation / bone / hemicentric…
[22] = group: developmental, developmental / developmental malformation / trunk / omphalocele + systemic / in life observation / body weight / fetal weight
[23] = group: maternal, reproductive / reproductive performance / resorptions / resorptions + systemic / in life observation / body weight / body weight + systemic…
[24] = group: developmental, developmental / developmental landmark / vaginal opening / vaginal opening
[25] = group: maternal, reproductive / reproductive performance / estrous cycle / abnormal + reproductive / reproductive performance / estrous cycle / corpora lutea
[26] = group: parental, systemic / clinical chemistry / estradiol / estradiol + systemic / organ weight / kidney / absolute + systemic / organ weight / ovary / …
[27] = group: developmental, developmental / offspring survival late / [other] / [other] + systemic / in life observation / body weight / offspring (pup) weight
[28] = group: maternal, reproductive / offspring survival early / dead fetuses / dead fetuses
[29] = group: cholinesterase, cholinesterase / cholinesterase / cholinesterase / plasma cholinesterase (che)
[30] = group: systemic, systemic / in life observation / food consumption / food consumption + systemic / in life observation / clinical signs / hindlimb strength…
[31] = group: systemic, systemic / hematology / erythrocyte (rbc) count differential / erythrocyte (rbc) + systemic / hematology / reticulocyte / reticulocyte + …
[32] = group: cholinesterase, cholinesterase / cholinesterase / cholinesterase / cholinesterase (che)
[33] = group: developmental, developmental / developmental malformation / liver / discolored
[34] = group: maternal, systemic / in life observation / body weight / body weight + systemic / in life observation / body weight / body weight gain
[35] = group: systemic, systemic / hematology / hemoglobin (hgb) / hemoglobin (hgb) + systemic / in life observation / clinical signs / grip strength + systemic / …
[36] = group: systemic, systemic / pathology microscopic / adrenal gland / vacuolization cytoplasmic + systemic / pathology microscopic / ovary / hypertrophy
[37] = group: systemic, systemic / pathology microscopic / ovary / hyperplasia + systemic / in life observation / clinical signs / grip strength + systemic / organ …
[38] = group: systemic, systemic / pathology microscopic / adrenal gland / pigmentation
[39] = group: systemic, systemic / in life observation / body weight / body weight + systemic / in life observation / body weight / body weight gain + systemic / in…
[40] = group: systemic, systemic / pathology microscopic / adrenal gland / vacuolization cytoplasmic
[41] = group: systemic, systemic / hematology / hemoglobin (hgb) / hemoglobin (hgb) + systemic / hematology / mean corpuscular hemoglobin concentration (mchc) / …

C[N+]12CN3CN(CN(C3)C1)C2.[Cl-]
LEL (rat [1]; [16]): 1500 mg/kg/day
LOAEL (rat [1]; [16]): 1500 mg/kg/day
NEL (rat [1]; [16]): < 1500 mg/kg/day
NOAEL (rat [1]; [16]): < 1500 mg/kg/day
LOAEL (rat [1]; group: maternal, systemic / in life observation / body weight / body weight + systemic / pathology gross / liver / enlarged): 3000 mg/kg/day
NOAEL (rat [1]; group: maternal, systemic / in life observation / body weight / body weight + systemic / pathology gross / liver / enlarged + reproductive / reproductive …): 1500 mg/kg/day
LEL (rat [1]; [17]): 1500 mg/kg/day
NEL (rat [1]; [17]): < 1500 mg/kg/day

CC(C)c1ccc2cc(C(C)C)ccc2c1 [2,6-Diisopropylnaphthalene]
LEL (rat [2]; [18]): 500 mg/kg/day
LOAEL (rat [2]; [18]): 500 mg/kg/day
NEL (rat [2]; [18]): 150 mg/kg/day
NOAEL (rat [2]; [18]): 150 mg/kg/day
LEL (rat [2]; [19]): 150 mg/kg/day
LOAEL (rat [2]; [19]): 150 mg/kg/day
NEL (rat [2]; [20]): 50 mg/kg/day
NOAEL (rat [2]; [20]): 50 mg/kg/day

O.O.[Cu] [Copper(II) hydroxide]
LEL (rabbit [3]; [21]): 18 mg/kg/day
LOAEL (rabbit [3]; [21]): 18 mg/kg/day
NEL (rabbit [3]; [21]): 9 mg/kg/day
NOAEL (rabbit [3]; [21]): 9 mg/kg/day
LEL (rabbit [3]; [19]): 9 mg/kg/day
LOAEL (rabbit [3]; [19]): 9 mg/kg/day
NEL (rabbit [3]; [20]): 6 mg/kg/day
NOAEL (rabbit [3]; [20]): 6 mg/kg/day
LEL (rabbit [4]; [22]): 30 mg/kg/day
LOAEL (rabbit [4]; [22]): > 30 mg/kg/day
NEL (rabbit [4]; [22]): 15 mg/kg/day
NOAEL (rabbit [4]; [22]): ≥ 30 mg/kg/day
LOAEL (rabbit [4]; [23]): > 30 mg/kg/day
NEL (rabbit [4]; [23]): 7.5 mg/kg/day
NOAEL (rabbit [4]; [23]): ≥ 30 mg/kg/day
LEL (rabbit [4]; group: maternal, systemic / in life observation / body weight / body weight + systemic / in life observation / body weight / body weight gain + systemic / in…): 15 mg/kg/day

CC(C)OC(=O)c1ccc(O)cc1 [Isopropylparaben]
LEL (rat [5]; [24]): 250 mg/kg/day
LOAEL (rat [5]; [24]): > 1000 mg/kg/day
NEL (rat [5]; [24]): 62.5 mg/kg/day
NOAEL (rat [5]; [24]): ≥ 1000 mg/kg/day
LEL (rat [5]; [25]): 1000 mg/kg/day
LOAEL (rat [5]; [25]): > 1000 mg/kg/day
NEL (rat [5]; [25]): 250 mg/kg/day
NOAEL (rat [5]; [25]): ≥ 1000 mg/kg/day
LEL (rat [5]; [26]): 1000 mg/kg/day
LOAEL (rat [5]; [26]): > 1000 mg/kg/day
NEL (rat [5]; [26]): 250 mg/kg/day
NOAEL (rat [5]; [26]): ≥ 1000 mg/kg/day

C1N2CN3CN1CN(C2)C3 [Methenamine]
LEL (dog [6]; [27]): 31 mg/kg/day
LOAEL (dog [6]; [27]): > 31 mg/kg/day
NEL (dog [6]; [27]): 15 mg/kg/day
NOAEL (dog [6]; [27]): ≥ 31 mg/kg/day
LEL (dog [6]; [28]): 31 mg/kg/day
LOAEL (dog [6]; [28]): > 31 mg/kg/day
NEL (dog [6]; [28]): 15 mg/kg/day
NOAEL (dog [6]; [28]): ≥ 31 mg/kg/day

CNC(=O)Oc1cc(C)c(SC)c(C)c1 [Methiocarb]
LEL (dog [7]; [29]): 0.75 mg/kg/day
LOAEL (dog [7]; [29]): 0.75 mg/kg/day
NEL (dog [7]; [29]): < 0.75 mg/kg/day
NOAEL (dog [7]; [29]): < 0.75 mg/kg/day
LOAEL (dog [7]; group: systemic, systemic / in life observation / clinical signs / tremors): 12 mg/kg/day
LEL (dog [7]; group: systemic, systemic / in life observation / food consumption / food consumption): 3 mg/kg/day
NEL (dog [7]; [30]): 0.75 mg/kg/day
NOAEL (dog [7]; [30]): 3 mg/kg/day
LEL (rat [8]; [29]): 30 mg/kg/day
LOAEL (rat [8]; [29]): > 30 mg/kg/day
NEL (rat [8]; [29]): 10 mg/kg/day
NOAEL (rat [8]; [29]): ≥ 30 mg/kg/day
LOAEL (rat [8]; group: systemic, systemic / hematology / erythrocyte (rbc) count differential / erythrocyte (rbc)): 10 mg/kg/day
LEL (rat [8]; group: systemic, systemic / hematology / erythrocyte (rbc) count differential / erythrocyte (rbc) + systemic / hematology / reticulocyte / reticulocyte): 10 mg/kg/day
NEL (rat [8]; [31]): 3.4 mg/kg/day
NOAEL (rat [8]; [31]): 3.4 mg/kg/day
LEL (rabbit [9]; [32]): 10 mg/kg/day
LOAEL (rabbit [9]; [32]): 10 mg/kg/day
NEL (rabbit [9]; [32]): 3 mg/kg/day
NOAEL (rabbit [9]; [32]): 3 mg/kg/day
LEL (rabbit [9]; [33]): 10 mg/kg/day
LOAEL (rabbit [9]; [33]): > 10 mg/kg/day
NEL (rabbit [9]; [33]): 3 mg/kg/day
NOAEL (rabbit [9]; [33]): ≥ 10 mg/kg/day
LEL (rabbit [9]; [34]): 10 mg/kg/day
LOAEL (rabbit [9]; [34]): 10 mg/kg/day
NEL (rabbit [9]; [34]): 3 mg/kg/day
NOAEL (rabbit [9]; [34]): 3 mg/kg/day

Cc1ccc(OP(=O)(Oc2ccc(C)cc2)Oc2ccc(C)cc2)cc1.Cc1cccc(OP(=O)(Oc2cccc(C)c2)Oc2cccc(C)c2)c1.Cc1ccccc1OP(=O)(Oc1ccccc1C)Oc1ccccc1C [Tricresyl phosphate]
LEL (rat [10]; [32]): 50 mg/kg/day
LOAEL (rat [10]; [32]): > 800 mg/kg/day
NEL (rat [10]; [32]): < 50 mg/kg/day
NOAEL (rat [10]; [32]): ≥ 800 mg/kg/day
LOAEL (rat [10]; [35]): > 800 mg/kg/day
NOAEL (rat [10]; [35]): ≥ 800 mg/kg/day
LEL (rat [10]; [36]): 50 mg/kg/day
NEL (rat [10]; [36]): < 50 mg/kg/day
LEL (rat [11]; [32]): 4 mg/kg/day
LOAEL (rat [11]; [32]): > 30 mg/kg/day
NEL (rat [11]; [32]): < 4 mg/kg/day
NOAEL (rat [11]; [32]): ≥ 30 mg/kg/day
LEL (rat [11]; group: systemic, systemic / pathology microscopic / ovary / hyperplasia): 7 mg/kg/day
LOAEL (rat [11]; [37]): > 30 mg/kg/day
NEL (rat [11]; [37]): 4 mg/kg/day
NOAEL (rat [11]; [37]): ≥ 30 mg/kg/day
LEL (mouse [12]; [32]): 7 mg/kg/day
LOAEL (mouse [12]; [32]): 7 mg/kg/day
NEL (mouse [12]; [32]): < 7 mg/kg/day
NOAEL (mouse [12]; [32]): < 7 mg/kg/day
LEL (mouse [12]; [38]): 8 mg/kg/day
LOAEL (mouse [12]; [38]): 8 mg/kg/day
NEL (mouse [12]; [38]): < 8 mg/kg/day
NOAEL (mouse [12]; [38]): < 8 mg/kg/day
LEL (rat [13]; [32]): 55 mg/kg/day
LOAEL (rat [13]; [32]): > 750 mg/kg/day
NEL (rat [13]; [32]): < 55 mg/kg/day
NOAEL (rat [13]; [32]): ≥ 750 mg/kg/day
LOAEL (rat [13]; [39]): > 750 mg/kg/day
NOAEL (rat [13]; [39]): ≥ 750 mg/kg/day
LEL (rat [13]; [40]): 55 mg/kg/day
NEL (rat [13]; [40]): < 55 mg/kg/day
LEL (mouse [14]; [32]): 50 mg/kg/day
LOAEL (mouse [14]; [32]): > 800 mg/kg/day
NEL (mouse [14]; [32]): < 50 mg/kg/day
NOAEL (mouse [14]; [32]): ≥ 800 mg/kg/day
LOAEL (mouse [14]; [39]): > 800 mg/kg/day
NOAEL (mouse [14]; [39]): ≥ 800 mg/kg/day
LEL (mouse [14]; [36]): 50 mg/kg/day
NEL (mouse [14]; [36]): < 50 mg/kg/day
LEL (mouse [15]; [32]): 45 mg/kg/day
LOAEL (mouse [15]; [32]): > 900 mg/kg/day
NEL (mouse [15]; [32]): < 45 mg/kg/day
NOAEL (mouse [15]; [32]): ≥ 900 mg/kg/day
LOAEL (mouse [15]; [41]): > 900 mg/kg/day
NOAEL (mouse [15]; [41]): ≥ 900 mg/kg/day
LEL (mouse [15]; [40]): 65 mg/kg/day
NEL (mouse [15]; [40]): < 65 mg/kg/day
